Measurements taken from US12195479B2, “Five- and six-membered compound, and preparation method therefor and pharmaceutical composition and use thereof” (HANGZHOU POLYMED BIOPHARMACEUTICALS, INC., priority 2021, dated 2025).
pIC50: −log10 of the molar value.

Tests used:
FLT3 kinase = molecular target: T1, FLT3 kinase (Homo sapiens, UniProt P36888); experiment: Kinase inhibition, fluorescence microfluidic mobility shift assay (FLT3); format: biochemical; details: substrate peptide FAM-P2 3 μM, ATP 97 μM; one hour at 28° C.; assayed in duplicate
T1 sequence (P36888 564-993): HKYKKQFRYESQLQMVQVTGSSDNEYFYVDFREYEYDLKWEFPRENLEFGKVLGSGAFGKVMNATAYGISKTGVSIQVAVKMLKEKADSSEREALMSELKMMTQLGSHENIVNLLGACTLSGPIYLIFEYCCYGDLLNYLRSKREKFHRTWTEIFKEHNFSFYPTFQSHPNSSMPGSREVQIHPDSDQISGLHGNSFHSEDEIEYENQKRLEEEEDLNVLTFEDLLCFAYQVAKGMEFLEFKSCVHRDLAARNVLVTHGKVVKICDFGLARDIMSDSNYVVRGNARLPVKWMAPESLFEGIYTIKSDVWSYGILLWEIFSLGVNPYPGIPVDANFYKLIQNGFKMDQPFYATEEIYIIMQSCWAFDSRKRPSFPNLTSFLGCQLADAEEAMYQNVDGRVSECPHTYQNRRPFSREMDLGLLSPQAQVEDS
Experimental: Based on the experimental method of fluorescence microfluidic mobility shift assay, the IC50 value of the compound for competitive binding of ATP to kinases IRAK4 and FLT3 was determined. The initial detection concentration of the compound was 10 μM, which was diluted to 0.38 nM with a 4-fold gradient and assayed in duplicate. In this case, commercially available staurosporine was the standard control for the assay.
Information on reagents and consumables is as follows: • IRAK4 kinase (Carna, Cat. No. 09-145, Lot. No. 14CBS-0020 H) • FLT3 kinase (Carna, Cat. No. 08-154, Lot. No. 07CBS-2350) • Substrate peptide FAM-P2 (GL Biochem, Cat. No. 112394, Lot. No. P131014-XP112394) • Substrate peptide FAM-P8 (GL Biochem, Cat. No. 112396, Lot. No. P170731-SY112396) • ATP (adenosine triphosphate, Sigma, Cat. No. A7699-1G, CAS No. 987-65-5) • DMSO (dimethyl sulfoxide, Sigma, Cat. No. D2650) • EDTA (ethylenediaminetetraacetic acid, Sigma, Cat. No. E5134, CAS No. 60-00-4) • Staurosporine (Selleckchem, Cat. No. 51421) • HEPES (4-(2-Hydroxyethyl)-1-piperazineethanesulfonic acid, Gibco, Cat. No. 15630-080) • Brij-35 solution (Polyoxyethylene lauryl ether, Sigma, Cat. No. B41840-100 mL) • DTT (dithiothreitol, Sigma, Cat. No. D0632-20G) • 0.2% Coating Reagent #3 (0.2% coating reagent, Perkin Elmer, Cat. No. 760050) • 96-well plate (Corning, Cat. No. 3365) • 384-well plate (Corning, Cat. No. 3573) Experimental operation method: • 1) FLT3 and IRAK4 kinases were dissolved in the kinase buffer (50 mM HEPES pH 7.5, 10 mM MgCl2, 2 mM DTT, and 0.01% Brij-35) at final concentrations of 0.9 nM, 30 nM, and 6 nM, respectively. • 2) The substrate peptide FAM-P2 and the substrate peptide FAM-P8, together with ATP, were dissolved in the above kinase buffer, respectively, where the final concentrations of the substrate peptide FAM-P2 and ATP for the determination of FLT3 were 3 μM and 97 μM, respectively; and the final concentrations of the substrate peptide FAM-P8 and ATP for the determination of IRAK4 were 3 μM and 10 μM, respectively. • 3) Compound dilution: The compound was first diluted to 50 μM, and then diluted downward with DMSO in a 4-fold gradient. In this case, the solution without compound and kinase served as the blank control, corresponding to the “minimum value” shown below; the solution without compound but containing kinase, adenosine triphosphate, DMSO, and the buffer served as the positive control, corresponding to the “maximum value” shown below. • 4) Kinase reaction and termination: 10 μL of the kinase buffer was added to a 384-well plate containing 5 μL of the compound to be tested, and the mixture was incubated for 10 minutes at room temperature; another 10 μL, of buffer containing the substrate peptide and adenosine triphosphate was added to the 384-well plate, and after incubation for one hour at 28° C., 25 μL, of termination solution (100 mM HEPES pH 7.5, 50 mM EDTA, 0.2% Coating Reagent #3, and 0.015% Brij-35) was added to each well for reaction termination. • 5) Data reading: CaliperEZ Reader II instrument was used to read the conversion rate data. Setting conditions: downstream voltage as −500 V, upstream voltage as −2250 V, base pressure as −0.5 PSI, and screening pressure as −1.2 PSI. • 6) Data calculation: the conversion rate data was copied from CaliperEZ Reader II, and the conversion rate was converted into inhibition rate data.

MV4-11 cells = experiment: Cytotoxicity against MV4-11 cells (CellTiter-Glo); format: cell-based; details: Homo sapiens, incubated for 72 hours, CellTiter-Glo chemiluminescence
Experimental: Determination of the IC50 Value of the Compound's Cytotoxicity Against MV4-11 Cells
MV-4-11 cells were cultured with IMDM complete medium (IMDM+10% fetal bovine serum+1% Penicillin-Streptomycin, a mixture of penicillin-streptomycin). • 2. MV-4-11 cells in good condition were collected and washed twice with DPBS ([…] phosphate buffered saline solution). • 3. MV-4-11 cells were resuspended with IMDM complete medium, the cell density was adjusted to 1.11×10^6 cells/mL, and the MV-4-11 cells were added to 96-well plates at 90 μL per well. • 4. A compound solution with 10-fold concentration was prepared with IMDM complete medium, 10 μL of the compound solution with 10-fold concentration was added to the cells in the 96-well plate, mixed well, and then the 96-well plate was placed in a 5% CO2 incubator at 37° C. and incubated for 72 hours. • 5. After the incubation, the 96-well plate was taken out and equilibrated for 30 minutes at room temperature. Then 100 μL of CellTiter Glo reagent was added to each well and mixed on a horizontal shaker for 2 minutes. • 6. The 96-well plate was removed, equilibrated at room temperature for 10 minutes, and the chemiluminescence value was detected on a microplate reader.

IRAK4 kinase = molecular target: T2, IRAK4 kinase (Homo sapiens, UniProt Q9NWZ3); experiment: Kinase inhibition, fluorescence microfluidic mobility shift assay (IRAK4); format: biochemical; details: substrate peptide FAM-P8 3 μM, ATP 10 μM; one hour at 28° C.; assayed in duplicate
T2 sequence (Q9NWZ3 1-460): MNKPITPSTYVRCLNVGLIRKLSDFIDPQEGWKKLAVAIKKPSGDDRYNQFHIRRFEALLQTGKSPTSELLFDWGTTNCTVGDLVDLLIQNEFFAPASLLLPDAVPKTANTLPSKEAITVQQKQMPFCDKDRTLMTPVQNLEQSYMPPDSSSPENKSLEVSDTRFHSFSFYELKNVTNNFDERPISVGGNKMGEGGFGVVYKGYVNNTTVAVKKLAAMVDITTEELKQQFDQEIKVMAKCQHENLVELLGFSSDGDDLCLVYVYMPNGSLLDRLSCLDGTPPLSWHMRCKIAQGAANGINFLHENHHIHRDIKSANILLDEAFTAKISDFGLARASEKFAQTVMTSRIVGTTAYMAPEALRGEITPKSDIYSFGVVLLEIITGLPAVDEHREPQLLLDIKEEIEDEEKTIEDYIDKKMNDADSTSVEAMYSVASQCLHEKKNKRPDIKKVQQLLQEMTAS

| pIC50 (FLT3 kinase) | pIC50 (IRAK4 kinase) | SMILES | pIC50 (MV4-11 cells) |
| --- | --- | --- | --- |
| 9.47 | 7.96 | Cc1cc(-c2nc(C(=O)Nc3cc4cn(CCC5CCNC5=O)nc4cc3C(C)(C)O)co2)ccn1 (stereo not shown) [II-1] | 7.71 |
| 9.28 | 8.08 | COc1cc2nn(CCC3CCNC3=O)cc2cc1NC(=O)c1coc(-c2ccnc(C)c2)n1 (stereo not shown) [II-2] | 7.83 |
| 7.92 | 7.14 | COc1cc2nn(CCC3CCNC3=O)cc2cc1NC(=O)c1coc(Br)n1 (stereo not shown) [II-4] |  |
| 9.72 | 8.46 | COc1cc2nn(C3CCNCC3)cc2cc1NC(=O)c1nc(-c2ccnc(C)c2)c[nH]1 [II-5C] | 9.11 |
|  | 6.75 | COc1cc2nn(C3CCNCC3)cc2cc1NC(=O)c1coc(N2CCN(C(C)=O)CC2)n1 [II-6] |  |
| 7.00 | 7.03 | COc1cc2nn(C3CCNCC3)cc2cc1NC(=O)c1coc(N2CCS(=O)(=O)CC2)n1 [II-7C] |  |
| 8.02 | 7.60 | COc1cc2nn(CCC3CCNC3=O)cc2cc1NC(=O)c1coc(-c2ccnc(C(F)(F)F)c2)n1 (stereo not shown) [II-8] |  |
|  | 8.03 | COc1cc2nn(C3CCNCC3)cc2cc1NC(=O)c1coc(-c2ccccc2)n1 [II-9C] |  |
| 8.54 | 7.60 | COc1cc2nn(C3CCNCC3)cc2cc1NC(=O)c1coc(-c2ccncc2)n1 [II-10C] | 8.37 |
| 9.12 | 8.16 | COc1cc2nn(C3CCNCC3)cc2cc1NC(=O)c1ccn(-c2ccnc(C)c2)n1 [II-11C] | 8.34 |
| 9.36 | 8.00 | COc1cc2nn(CCS(C)(=N)=O)cc2cc1NC(=O)c1coc(-c2ccnc(C)c2)n1 (stereo not shown) [II-12] | 7.75 |
| 9.36 | 8.19 | COc1cc2nn(C3CCNCC3)cc2cc1NC(=O)c1coc(-c2ccnc(C(F)(F)F)c2)n1 [II-13C] | 7.84 |
| 9.14 | 8.12 | Cc1cc(-c2nc(C(=O)Nc3cc4cn(C5CCNCC5)nc4cc3OC(C)C)co2)ccn1 [II-14C] | 9.60 |
| 8.89 | 8.19 | COc1cc2nc(C3CCNCC3)cn2cc1NC(=O)c1coc(-c2ccnc(C)c2)n1 [II-15C] | 8.09 |
| 9.10 | 7.80 | Cc1cc(-c2nc(C(=O)Nc3cc4cc(CCC(C)(C)O)nn4cc3C(C)(C)O)co2)ccn1 [II-28] | 8.51 |
| 9.49 | 8.29 | Cc1cc(-c2nc(C(=O)Nc3cc4cn(CCC(C)(C)O)nc4cc3C(C)(C)O)co2)ccn1 [II-49] | 8.30 |
| 9.49 | 8.19 | Cc1cc(-c2nc(C(=O)Nc3cc4cn(CCN5CC6(COC6)C5)nc4cc3C(C)(C)O)co2)ccn1 [II-51] | 7.80 |
| 9.11 | 7.64 | Cc1cc(-c2nc(C(=O)Nc3cc4cn(C5CCC(O)CC5)nc4cc3C(C)(C)O)co2)ccn1 (stereo not shown) [II-54] | 7.45 |
| 9.62 | 8.47 | Cc1cc(-c2nc(C(=O)Nc3cc4cn(C5CCOCC5)nc4cc3C(C)(C)O)co2)ccn1 [II-56] | 8.34 |
| 9.52 | 8.19 | Cc1cc(-c2nc(C(=O)Nc3cc4cn(C5CCS(=O)(=O)CC5)nc4cc3C(C)(C)O)co2)ccn1 [II-57] | 7.89 |
| 9.20 | 8.31 | Cc1cc(-c2nc(C(=O)Nc3cc4cn(C5CCN(CC(F)(F)F)CC5)nc4cc3C(C)(C)O)co2)ccn1 [II-59] | 7.90 |
|  | 8.35 | Cc1cc(-c2nc(C(=O)Nc3cc4cn(CCC5CCNC5=O)nc4cc3OC3COC3)co2)ccn1 (stereo not shown) [II-64] | 8.89 |

| pIC50 (FLT3 kinase) | pIC50 (IRAK4 kinase) | SMILES | pIC50 (MV4-11 cells) |
| --- | --- | --- | --- |
| 7.81 | 8.31 | CC(C)(O)CCc1cc2cc(NC(=O)c3coc(-c4ccnc(C(F)(F)F)c4)n3)c(C(C)(C)O)cn2n1 [II-92] | 7.20 |
| 8.66 | 8.57 | CC(C)(O)CCn1cc2cc(NC(=O)c3coc(-c4ccnc(C(F)(F)F)c4)n3)c(C(C)(C)O)cc2n1 [II-93] | 7.68 |
| 9.36 | 8.10 | COc1cc2nn(C3CCNCC3)cc2cc1NC(=O)c1coc(-c2ccnc(C(F)F)c2)n1 [II-94C] | 7.97 |
| 9.33 | 7.92 | COc1cc2nn(C3CCS(=N)(=O)CC3)cc2cc1NC(=O)c1coc(-c2ccnc(C)c2)n1 (stereo not shown) [II-95] | 7.74 |
| 9.66 | 8.43 | COc1cc2nn(C3CCS(=O)(=O)CC3)cc2cc1NC(=O)c1coc(-c2ccnc(C)c2)n1 [II-96] | 8.19 |
| 9.28 | 8.16 | Cc1cc(-c2nc(C(=O)Nc3cc4cn(CCN5CCC(F)(F)C5)nc4cc3C(C)(C)O)co2)ccn1 [II-97] | 7.86 |
| 9.36 | 8.28 | Cc1cc(-c2nc(C(=O)Nc3cc4cn(CCC(C)(C)O)nc4cc3N3CCC(F)(F)C3)co2)ccn1 [II-98] | 9.52 |
| 9.59 | 8.26 | Cc1cc(-c2nc(C(=O)Nc3cc4cn(C5CCC6(CNC6)C5)nc4cc3C(C)(C)O)co2)ccn1 (stereo not shown) [II-99] | 7.96 |
| 9.07 | 7.68 | Cc1cc(-c2nc(C(=O)Nc3cc4cn(CCC(C)(C)O)nc4cc3N3CCC(O)C3)co2)ccn1 (stereo not shown) [II-102] | 8.10 |
| 9.46 | 8.49 | Cc1cc(-c2nc(C(=O)Nc3cc4cn(C5CCOC(C)(C)C5)nc4cc3C(C)(C)O)co2)ccn1 (stereo not shown) [II-103] | 8.52 |
| 8.64 | 8.28 | CC(C)c1cc(-c2nc(C(=O)Nc3cc4cn(CCC(C)(C)O)nc4cc3C(C)(C)O)co2)ccn1 [II-104] | 7.68 |
| 7.41 | 8.58 | CC(C)(O)CCn1cc2cc(NC(=O)c3ccn(-c4ccnc(C(F)(F)F)c4)n3)c(C(C)(C)O)cc2n1 [II-105] |  |
| 9.39 | 8.48 | Cc1cc(-c2nc(C(=O)Nc3cc4cn(C5CCN(C6COC6)CC5)nc4cc3C(C)(C)O)co2)ccn1 [II-106] | 8.10 |
| 9.14 | 8.04 | Cc1cc(-c2nc(C(=O)Nc3cc4cn(CC5(F)CN(C(=O)OC(C)(C)C)C5)nc4cc3C(C)(C)O)co2)ccn1 [II-107] |  |
| 9.44 | 8.09 | Cc1cc(-c2nc(C(=O)Nc3cc4cn(CCN5CC6CC5CO6)nc4cc3C(C)(C)O)co2)ccn1 (stereo not shown) [II-110] |  |
|  | 8.12 | Cc1cc(-c2nc(C(=O)Nc3cc4cn(C5CC(C)(C)OC(C)(C)C5)nc4cc3C(C)(C)O)co2)ccn1 [II-116] | 7.56 |
|  | 6.91 | Cc1cc(-n2ccc(C(=O)Nc3cc4oc(N5CCOCC5)nc4nc3N3CCC(O)C3)n2)ccn1 (stereo not shown) [II-123] |  |
|  | 7.09 | Cc1cc(-c2nc(C(=O)Nc3cc4oc(N5CC6CC5CO6)nc4nc3N3CCC(O)C3)co2)ccn1 (stereo not shown) [II-125] |  |
| 7.89 | 7.36 | Cc1cc(-c2nc(C(=O)Nc3cc4oc(N5CCN(CC(F)(F)F)CC5)nc4nc3N3CCC(O)C3)co2)ccn1 (stereo not shown) [II-128] |  |
| 8.05 | 7.59 | Cc1cc(-c2nc(C(=O)Nc3cc4oc(N5CCC(C(F)(F)F)CC5)nc4nc3N3CCC(O)C3)co2)ccn1 (stereo not shown) [II-130] |  |
|  | 7.70 | CC(C)(O)CCn1cc2cc(NC(=O)c3coc(-c4ccnc(C(F)(F)F)c4)n3)c(C(C)(C)O)nc2n1 [II-131] |  |

| SMILES | pIC50 (FLT3 kinase) | pIC50 (IRAK4 kinase) | pIC50 (MV4-11 cells) |
| --- | --- | --- | --- |
| COc1cn2nc(C3CCNCC3)cc2cc1NC(=O)c1coc(-c2ccnc(C)c2)n1 [II-3F] | 8.64 | 8.22 | 7.82 |
| Cc1cc(-c2nc(C(=O)Nc3cc4cn(C5CC6CCC(C5)N6)nc4cc3C(C)(C)O)co2)ccn1 (stereo not shown) [II-100] | 9.21 | 7.66 | 8.05 |
| Cc1cc(-c2nc(C(=O)Nc3cc4cn(C5CC6CCC(C5)N6C)nc4cc3C(C)(C)O)co2)ccn1 (stereo not shown) [II-101] | 9.32 | 7.66 | 8.15 |
